Structures can show the parent of a compound that is named as a salt.
The compounds below were run against Sphingosine 1-phosphate receptor 1 (Homo sapiens, UniProt P21453) (assay: direct activation of human S1P1 – cell-based, agonist mode, 60K MLSMR set, dose response (AID 468)). Details: not given.
Chain of Sphingosine 1-phosphate receptor 1 (P21453 whole entry): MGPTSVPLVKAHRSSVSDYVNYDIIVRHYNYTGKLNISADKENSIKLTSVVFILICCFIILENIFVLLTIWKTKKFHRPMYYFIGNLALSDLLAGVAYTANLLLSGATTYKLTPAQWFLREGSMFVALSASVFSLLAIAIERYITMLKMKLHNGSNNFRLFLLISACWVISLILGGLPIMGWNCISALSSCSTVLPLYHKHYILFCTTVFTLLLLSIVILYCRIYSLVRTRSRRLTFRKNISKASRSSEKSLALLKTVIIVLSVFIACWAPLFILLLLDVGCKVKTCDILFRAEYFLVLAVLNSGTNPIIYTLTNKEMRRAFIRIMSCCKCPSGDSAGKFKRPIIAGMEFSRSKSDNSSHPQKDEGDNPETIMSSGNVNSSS
`CCN=c1scc(-c2ccc3c(c2)NC(=O)CO3)n1N=C1CCCC1` [MLS000054638] gave an EC50 of 8.6 µM. Compound `Fc1ccc2[nH]c3c(N4CCSCC4)ncnc3c2c1` [MLS000078401] has an EC50 of 6.12 µM. In the case of `Nc1nnnn1N=C/C(Br)=C/c1ccccc1` [1-[[(Z)-2-bromanyl-3-phenyl-prop-2-enylidene]amino]-1,2,3,4-tetrazol-5-amine], the EC50 is reported as greater than 10 µM. For `CCC1CCCCN1C(=O)CSc1nnc(-c2c[nH]c3ccccc23)o1` (stereo not drawn), the EC50 was 5.9 µM. Compound `CCOc1ccc(-c2nc(-c3ccc(OC)cc3)no2)cc1OCC` [5-(3,4-Diethoxy-phenyl)-3-(4-methoxy-phenyl)-[1,2,4]oxadiazole] has an EC50 of 0.568 µM. Work on `CC(=N)C(C#N)C(=O)CSc1nnc(SCc2ccc(Cl)cc2)s1` (stereo not drawn) [(E)-3-amino-2-[2-[[5-[(4-chlorobenzyl)thio]-1,3,4-thiadiazol-2-yl]thio]acetyl]but-2-enenitrile] yielded an EC50 of 8.95 µM. `Oc1ccc(C2NCc3ccccc3-n3cccc32)cc1Cl` (stereo not drawn) [2-chloranyl-4-(5,6-dihydro-4H-pyrrolo[1,2-a][1,4]benzodiazepin-4-yl)phenol;hydrochloride] was tested, and the EC50 was 3.04 µM. With `Cc1cc(C(=O)N2CCN(C(c3ccccc3)c3ccccc3)CC2)on1` [(4-benzhydrylpiperazin-1-yl)-(3-methyl-1,2-oxazol-5-yl)methanone] the EC50 was 5.8 µM. Compound `OC1(c2cccc(C(F)(F)F)c2)CCN(c2ncnc3c2[nH]c2ccc(F)cc23)CC1` [1-(8-fluoranyl-5H-pyrimido[5,4-b]indol-4-yl)-4-[3-(trifluoromethyl)phenyl]piperidin-4-ol] has an EC50 of 3.91 µM. Compound `O=C(CSc1ncnc2c1oc1ccccc12)N1CCCc2ccccc21` [2-(4-benzofuro[3,2-d]pyrimidinylthio)-1-(3,4-dihydro-2H-quinolin-1-yl)ethanone] has an EC50 greater than 3 µM. `CCCCOc1ncnc2c1[nH]c1ccc(F)cc12` [4-butoxy-8-fluoranyl-5H-pyrimido[5,4-b]indole] was tested, and the EC50 was 2.73 µM. `Oc1c(Cl)cc(Cl)cc1Sc1cc(Cl)cc(Cl)c1O` gave an EC50 of 1.02 µM. For `CCOc1ccc(S(=O)(=O)N2CCN(c3ccc(C)cc3C)CC2)cc1` [1-(2,4-dimethylphenyl)-4-(4-ethoxyphenyl)sulfonyl-piperazine], the EC50 was greater than 10 µM. In the case of `c1csc(CCNc2ncnc3sc4c(c23)CCC4)c1` [7,8-dihydro-6H-cyclopenta[4,5]thieno[1,2-c]pyrimidin-1-yl-[2-(2-thienyl)ethyl]amine], the EC50 is reported as 1.24 µM. Compound `CCOc1ccc(C(C)=O)cc1-n1c(O)c2c(c1O)C1C=CC2O1` [MLS000087730] has an EC50 of 10.2 µM. In the case of `Cc1nn(Cc2ccc(Cl)c(Cl)c2)c(C)c1NC(=O)c1cc(CC(C)C)on1` [MLS000116412], the EC50 is reported as 9.16 µM. `Clc1ccc(NCn2cncn2)nc1` gave an EC50 greater than 95 µM. With `C=CS(=O)(=O)c1ccc(Oc2ccc(S(=O)(=O)C=C)cc2)cc1` [1-ethenylsulfonyl-4-(4-ethenylsulfonylphenoxy)benzene] the EC50 was 2.74 µM. With `Cc1ccc(-n2c(C)cc(C(=O)CSc3nnnn3C)c2C)cc1` [1-[2,5-dimethyl-1-(4-methylphenyl)-3-pyrrolyl]-2-[(1-methyl-5-tetrazolyl)thio]ethanone] the EC50 was 4.77 µM. Compound `CCOC(=O)CN1C(=O)C(C)(C)Oc2ccc(C(=O)Nc3ccccc3OC)cc21` [2-[3-keto-6-[(2-methoxyphenyl)carbamoyl]-2,2-dimethyl-1,4-benzoxazin-4-yl]acetic acid ethyl ester] has an EC50 of 4.29 µM. For `CCn1nc(-c2ccccc2)nc2c(=O)n(C)c(=O)nc1-2` [1-Ethyl-6-methyl-3-phenyl-1H-pyrimido[5,4-e][1,2,4]triazine-5,7-dione], the EC50 was 3.55 µM. Compound `COc1ccc(-n2nc3ccc(NS(C)(=O)=O)cc3n2)cc1Cl` [MLS000049114] has an EC50 of 0.148 µM. With `CCc1cc2c(N3CCN(c4ccccc4)CC3)ncnc2s1` [6-ethyl-4-(4-phenyl-1-piperazinyl)thieno[2,3-d]pyrimidine] the EC50 was 6.61 µM. For `O=C(Nc1ccccc1C(F)(F)F)c1cc(-c2ccc(O)cc2)on1` [5-(4-hydroxyphenyl)-N-[2-(trifluoromethyl)phenyl]isoxazole-3-carboxamide], the EC50 was 0.964 µM. `CCOc1ccc(-c2nc(-c3ccccc3C)no2)cc1` [3-(o-tolyl)-5-p-phenetyl-1,2,4-oxadiazole] showed an EC50 of 1.87 µM. Work on `O=C(Nc1ccc(S(=O)(=O)NCc2ccco2)cc1)c1ccc2ccccc2n1` [MLS000098663] yielded an EC50 of 8.51 µM. `OC(c1cccc(OCc2ccccc2)c1)c1nnc(-c2ccccc2)o1` (stereo not drawn) [(3-benzoxyphenyl)-(5-phenyl-1,3,4-oxadiazol-2-yl)methanol] showed an EC50 of 2.08 µM. `CCCCOc1ncnc2c1[nH]c1ccccc12` [MLS000041483] gave an EC50 of 4.18 µM.

Same assay, conditions: inactive by the depositor's call
With `c1ccc(-c2ccc(-c3nc(-c4ccncc4)no3)cc2)cc1` [5-(4-phenylphenyl)-3-(4-pyridyl)-1,2,4-oxadiazole] the EC50 was 10.4 µM. In the case of `Cc1nc(C)c(C(=O)Nc2ccc(Oc3ccccc3)cc2)o1` [2,4-dimethyl-N-(4-phenoxyphenyl)-1,3-oxazole-5-carboxamide], the EC50 is reported as 11 µM. Compound `Oc1nnc(Sc2ncnc3sccc23)n1CCc1ccccc1` [4-(2-phenylethyl)-3-(4-thieno[2,3-d]pyrimidinylthio)-1H-1,2,4-triazol-5-one] has an EC50 of 16.9 µM. In the case of `Cc1cc(C(=O)CN2C(=O)c3ccccc3C2=O)c(C)n1Cc1cccs1` [2-[2-[2,5-dimethyl-1-(2-thenyl)pyrrol-3-yl]-2-keto-ethyl]isoindoline-1,3-quinone], the EC50 is reported as 17.4 µM. With `Cc1ccc2nc(NC(=O)CSc3nc4c(c(=O)n3C)SC(C)C4)sc2c1` (stereo not drawn) [2-[(3,6-dimethyl-4-oxidanylidene-6,7-dihydrothieno[3,2-d]pyrimidin-2-yl)sulfanyl]-N-(6-methyl-1,3-benzothiazol-2-yl)ethanamide] the EC50 was 13.2 µM. `Cc1nc2ncnn2c(N2CCN(c3cccc(C(F)(F)F)c3)CC2)c1C` [5,6-Dimethyl-7-[4-(3-trifluoromethyl-phenyl)-piperazin-1-yl]-[1,2,4]triazolo[1,5-a]pyrimidine] was tested, and the EC50 was 14.1 µM. `Cc1ccc(C(=O)Nc2nc(COc3ccccc3)cs2)s1` [5-methyl-N-[4-(phenoxymethyl)-1,3-thiazol-2-yl]thiophene-2-carboxamide] gave an EC50 of 12.1 µM. In the case of `COc1cccc(-c2cc(C(=O)Nc3ccccc3SC)no2)c1` [5-(3-methoxyphenyl)-N-(2-methylsulfanylphenyl)-1,2-oxazole-3-carboxamide], the EC50 is reported as 18 µM. For `Cc1nc2sc(-c3ccccc3)cc2c(=O)n1-n1cccc1` [2-methyl-6-phenyl-3-(1-pyrrolyl)-4-thieno[2,3-d]pyrimidinone], the EC50 was 22.2 µM. In the case of `C=CCOC(=O)c1[nH]c2c(c1C)C(=O)CC(c1cc(OC)c(OC)c(OC)c1)C2` (stereo not drawn) [SMR000093465], the EC50 is reported as 10.7 µM. `CCCOC(=O)c1[nH]c2c(c1C)C(=O)CC(c1cc(OC)c(OC)c(OC)c1)C2` (stereo not drawn) [MLS000116504] showed an EC50 of 10.9 µM. In the case of `CC(=O)N1CCCc2cc(S(=O)(=O)NCCC3=CCCCC3)ccc21` [1-acetyl-N-(2-cyclohex-1-en-1-ylethyl)-1,2,3,4-tetrahydroquinoline-6-sulfonamide], the EC50 is reported as 14.5 µM. `COc1ccc(OC)c(-c2cc(C(=O)Nc3c(C)nn(Cc4ccc(Cl)cc4)c3C)no2)c1` [MLS000087191] was tested, and the EC50 was 20.8 µM. For `Cc1ccc(-c2nc(COC(=O)c3c(C)noc3C)cs2)cc1` [3,5-dimethyl-4-isoxazolecarboxylic acid [2-(4-methylphenyl)-4-thiazolyl]methyl ester], the EC50 was 26.2 µM. Work on `CC/N=c1\sc(C(=O)NCCc2ccccc2)cc(=O)n1CC` [3-Ethyl-2-[(Z)-ethylimino]-4-oxo-3,4-dihydro-2H-[1,3]thiazine-6-carboxylic acid phenethyl-amide] yielded an EC50 of 22.5 µM.

Reference: BindingDB's records for doi:10.7270/Q2251GJ9 (The Scripps Research Institute Molecular Screening Center, 2007)
